{
  "source": "patent EP3158990A1",
  "about": "(Glano Tech Ltd, priority 2015, dated 2017)",
  "key": {"[1]": {"tested_on": "smooth muscle of the corpora cavernosa of rats", "experiment": "Relaxation/contraction of rat corpus cavernosum tissue samples (force displacement transducer)", "assay_type": "cell-based, Wistar-type rats", "conditions": "for relaxation of the tissue of the corpora cavernosa: tissue constricted with norepinephrine, scalar solutions 10^-5 M to 10^-3 M", "description": "In particular, this model is used for planning experiments aimed at checking the vasodilatory action of NO on vascular smooth muscle cells, since the methodology presented by the authors allows samples of corpus cavernosum tissue to be obtained from rats, on which studies of response to various exogenous molecules can be conducted, to detect their relaxation/contraction effects on smooth muscle cells.\nThe work we selected and the experimental model on which we based our observations can easily be traced in the following work: G. Italiano, A. Calabrò and F. Pagano of the Urology Institute of Padua University, published in Pharmacology Therapeutics (Vol 30 no 4, 1994 pp. 325-334).\nWe used 20 adult Wistar-type rats weighing between 175 and 200 g; after having sacrificed the rats we obtained corpus cavernosum tissues as described by the methods and placed these in a Krebs solution (in mM: 118 NaCl, 4,7 KCI, 1,2 KH2PO4, 1,2 MgSO4, 1,5 CaCl2, 25 NaHCO3, 11 glucose).\nA single sample was taken from each rat.\nThe excised tissues were then put in 10 mL Krebs solution and held in place by two metal arms to allow assessment of any changes in the forces observed and assessed by the Grass FT03 model (using a force displacement transducer apparatus to assess the muscle tension of tissues, calibrated in mN). The saline solution containing the tissues (Krebs solution) was kept at pH 7.4 ±0.1 and at 37°C, with oxygenation using a mixture of 95% oxygen and 5% carbon dioxide."}, "[2]": {"experiment": "Analysis of the mixed solution (infrared nitrite peak, visible UV spectrum)", "assay_type": "physicochemical"}, "[3]": {"tested_on": "rat model with type 1 diabetes induced by streptozotocin", "experiment": "In-vivo test of sexual function in diabetic rat models", "set-up": "species or system male Wistar rats", "description": "Next we tested the possible beneficial effects of SNO-pantetheine on sexual function in a rat model with type 1 diabetes induced by streptozotocin, which is typically accompanied by deficit of sexual activity.\nIn short, male Wistar rats were assigned to a cage (45 × 50 × 35 cm) covered in glass and lit with red light. Training took place every day after 5 pm for about 30 min, and after 10 minutes of acclimatisation a female rat in an oestrogenic phase was introduced into the cage. We then observed the sexual behaviour of diabetic rats vs. the relevant controls by measuring standard parameters (Burnett et al., 1995)."}},
  "data": [
    {"compound": "NC[C@H](O)c1ccc(O)c(O)c1", "note": "[norepinephrine, reference compound]", "values": [
      {"measurement": "constriction", "setting": "[1]; scalar solutions 10^-8 M to 10^-3 M, Krebs solution pH 7.4, 37°C", "value": "about 1.5 mN"}
    ]},
    {"compound": "O=C(O)CCCCC1CCSS1", "note": "(stereo not drawn) [alpha lipoic acid]", "values": [
      {"measurement": "results of the reaction compared with pantetheine (nitrite consumption, S-nitroso compound formation)", "setting": "[2]; alpha lipoic acid used as SH group donor instead of pantetheine", "value": "comparable results"}
    ]},
    {"compound": "S-nitrosothiol of alpha lipoic acid", "values": [
      {"measurement": "relaxation of the tissue of the corpora cavernosa", "setting": "[1]", "value": "very similar to that of the S-nitrosothiol of pantetheine"}
    ]},
    {"compound": "CC(C)(CO)[C@@H](O)C(=O)NCCC(=O)NCCSN=O", "note": "[SNO-pantetheine, S-nitrosothiol of pantetheine]", "values": [
      {"measurement": "nitrosothiol remains sufficiently stable", "setting": "[2]; at room temperature, after mixing of phases A and B", "value": "more than 1 hour"},
      {"measurement": "relaxation of the tissue of the corpora cavernosa", "setting": "[1]", "value": "the effect of the norepinephrine was cancelled out"},
      {"measurement": "EL (Ejaculation latency)", "setting": "[3]; Day 0, topical application", "value": "423.2 ± 12.5", "unit": "s"},
      {"measurement": "IF (Introduction frequency)", "setting": "[3]; Day 0, topical application", "value": "11.2 ± 0.9", "unit": "number"},
      {"measurement": "IL (Introduction latency)", "setting": "[3]; Day 0, topical application", "value": "52.3 ± 3.9", "unit": "s"},
      {"measurement": "MF (Mating frequency)", "setting": "[3]; Day 0, topical application", "value": "12.0 ± 1.7", "unit": "number"},
      {"measurement": "ML (Mating latency)", "setting": "[3]; Day 0, topical application", "value": "42.5 ± 2.9", "unit": "s"},
      {"measurement": "PEI (Post-ejaculatory interval)", "setting": "[3]; Day 0, topical application", "value": "343.3 ± 10.9", "unit": "s"},
      {"measurement": "EL (Ejaculation latency)", "setting": "[3]; Day 30, topical application", "value": "375.8 ± 10.8", "unit": "s"},
      {"measurement": "IF (Introduction frequency)", "setting": "[3]; Day 30, topical application", "value": "14.5 ± 0.8", "unit": "number"},
      {"measurement": "IL (Introduction latency)", "setting": "[3]; Day 30, topical application", "value": "44.7 ± 4.2", "unit": "s"},
      {"measurement": "MF (Mating frequency)", "setting": "[3]; Day 30, topical application", "value": "11.2 ± 0.3", "unit": "number"},
      {"measurement": "ML (Mating latency)", "setting": "[3]; Day 30, topical application", "value": "34.3 ± 2.5", "unit": "s"},
      {"measurement": "PEI (Post-ejaculatory interval)", "setting": "[3]; Day 30, topical application", "value": "386.2 ± 14.3", "unit": "s"}
    ]}
  ]
}
